Measurements from patent publication US20230092890A1, “1, 3, 4-Oxadiazole derivative compounds as histone deacetylase 6 inhibitor, and the pharmaceutical composition comprising the same” (Chong Kun Dang Pharmaceutical Corp., priority 2019, published 2023).

How the values were obtained:
[1] = target: T1, HDAC1 (Homo sapiens, UniProt Q13547); assay: HDAC enzyme activity inhibition (in vitro), HDAC1 Fluorimetric Drug Discovery Assay Kit; format: biochemical; details: samples at 100, 1000 and 10000 nM; 37° C. 60 minutes; fluorescence Ex 390, Em 460; read-out: HDAC1 IC50
T1 construct: purchased Enzolifesciences BML-AK511
Procedure, shortened: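 Compound incubated with enzyme 60 min at 37° C, then developer 30 min at 37° C; fluorescence read at Ex 390/Em 460. HDAC1 via fluorimetric kit, compounds at 100, 1000 and 10000 nM; HDAC6 human recombinant, compounds at 0.1, 1, 10, 100 and 1000 nM.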

[2] = target: T2, HDAC6 human recombinant (Homo sapiens, UniProt Q9UBN7); assay: HDAC enzyme activity inhibition (in vitro), HDAC6 assay; format: biochemical; details: samples at 0.1, 1, 10, 100 and 1000 nM; 37° C. 60 minutes; fluorescence Ex 390, Em 460; read-out: HDAC6 IC50
T2 construct: purchased Calbiochem 382180
T2 sequence (Q9UBN7 1-1215): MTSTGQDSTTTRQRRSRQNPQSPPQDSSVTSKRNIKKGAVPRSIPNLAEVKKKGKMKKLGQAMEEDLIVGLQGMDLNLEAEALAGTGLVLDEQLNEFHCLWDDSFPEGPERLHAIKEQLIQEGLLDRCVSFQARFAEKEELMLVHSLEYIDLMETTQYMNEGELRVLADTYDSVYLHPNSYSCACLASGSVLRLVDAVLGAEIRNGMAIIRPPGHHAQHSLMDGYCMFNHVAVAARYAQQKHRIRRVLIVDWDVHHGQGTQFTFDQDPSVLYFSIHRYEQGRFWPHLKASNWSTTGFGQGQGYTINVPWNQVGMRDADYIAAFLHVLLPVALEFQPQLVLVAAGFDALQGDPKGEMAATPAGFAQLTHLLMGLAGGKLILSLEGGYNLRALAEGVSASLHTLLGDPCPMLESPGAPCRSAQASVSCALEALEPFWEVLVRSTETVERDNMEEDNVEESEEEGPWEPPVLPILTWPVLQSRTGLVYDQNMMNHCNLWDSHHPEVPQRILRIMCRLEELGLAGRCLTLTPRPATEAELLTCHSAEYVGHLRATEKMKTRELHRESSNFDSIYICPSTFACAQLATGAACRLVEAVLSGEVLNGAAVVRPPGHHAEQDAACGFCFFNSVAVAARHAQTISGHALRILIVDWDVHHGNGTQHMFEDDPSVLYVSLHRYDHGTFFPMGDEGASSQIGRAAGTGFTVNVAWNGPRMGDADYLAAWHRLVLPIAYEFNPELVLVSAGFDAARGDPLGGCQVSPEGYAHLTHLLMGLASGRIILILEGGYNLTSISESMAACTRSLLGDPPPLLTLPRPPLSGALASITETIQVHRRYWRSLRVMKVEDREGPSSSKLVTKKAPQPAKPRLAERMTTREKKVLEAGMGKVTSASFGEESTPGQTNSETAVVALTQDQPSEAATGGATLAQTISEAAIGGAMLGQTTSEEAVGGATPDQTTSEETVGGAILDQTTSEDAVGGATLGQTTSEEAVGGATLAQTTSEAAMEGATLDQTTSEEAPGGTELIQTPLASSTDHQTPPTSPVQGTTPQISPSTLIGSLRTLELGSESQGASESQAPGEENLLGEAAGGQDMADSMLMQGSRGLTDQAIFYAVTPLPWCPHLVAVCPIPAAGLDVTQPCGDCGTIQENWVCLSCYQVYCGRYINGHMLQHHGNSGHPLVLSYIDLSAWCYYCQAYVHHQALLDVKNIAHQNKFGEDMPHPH
Procedure, shortened: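 HDAC6 human recombinant enzyme with fluorimetric substrate; […]. Reaction 60 min at 37° C, then developer 30 min at 37° C; fluorescence read at Ex 390/Em 460.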

T1 sequence (Q13547 whole entry): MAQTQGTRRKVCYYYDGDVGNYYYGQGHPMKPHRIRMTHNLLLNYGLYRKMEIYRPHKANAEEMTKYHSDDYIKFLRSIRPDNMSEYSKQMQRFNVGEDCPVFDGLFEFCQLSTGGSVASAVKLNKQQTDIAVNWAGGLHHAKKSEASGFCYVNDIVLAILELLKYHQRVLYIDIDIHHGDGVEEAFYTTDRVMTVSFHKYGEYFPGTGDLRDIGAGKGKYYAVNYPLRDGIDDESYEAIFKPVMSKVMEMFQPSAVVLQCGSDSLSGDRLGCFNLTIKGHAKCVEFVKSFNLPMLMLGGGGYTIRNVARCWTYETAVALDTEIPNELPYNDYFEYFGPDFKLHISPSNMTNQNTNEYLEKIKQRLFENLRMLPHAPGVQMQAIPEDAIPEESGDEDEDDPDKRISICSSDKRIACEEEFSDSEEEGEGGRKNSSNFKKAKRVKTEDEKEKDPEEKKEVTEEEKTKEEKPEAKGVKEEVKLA

`Cn1c(=O)n(Cc2ccc(-c3nnc(C(F)F)o3)cn2)c2cc(F)c(N3CCN(CC(F)(F)F)CC3)cc21` [Compound 263, 1-((5-(5-(difluoromethyl)-1,3,4-oxadiazole-2-yl)pyridine-2-yl)methyl)-6-fluoro-3-methy 1-5-(4-(2,2,2-trifluoroethyl)piperazine-1-yl)-1,3-dihydro-2H-benzo[d]imidazole-2-one] gave an IC50 [1] of over 10000 nM and an IC50 [2] of 59 nM.
`CN1CCC(n2c(=O)n(Cc3ccc(-c4nnc(C(F)F)o4)cc3F)c3ccc(-c4cccnc4)cc32)CC1` [Compound 139, 1-(4-(5-(difluoromethyl)-1,3,4-oxadiazole-2-yl)-2-fluorobenzyl)-3-(1-methylpiperidine-4-yl)-5-(pyridine-3-yl)-1,3-dihydro-2H-benzo[d]imidazole-2-one] showed an IC50 [1] of over 10000 nM and an IC50 [2] of 31 nM.
Work on `CC(C)N1CCN(c2ccc(-c3cc4oc(=O)n(Cc5ccc(-c6nnc(C(F)F)o6)cn5)c4cc3F)cn2)CC1` [Compound 349, 3-((5-(5-(difluoromethyl)-1,3,4-oxadiazole-2-yl)pyridine-2-yl)methyl)-5-fluoro-6-(6-(4-isopropylpiperazine-1-yl)pyridine-3-yl)benzo[d]oxazole-2(3H)-one] yielded an IC50 [1] of over 10000 nM and an IC50 [2] of 55 nM.
For `CCN1CCC[C@H](n2c(=O)n(Cc3ccc(-c4nnc(C(F)F)o4)cn3)c3cc(F)c(-c4ccncc4)cc32)C1` [Compound 300, (S)-1-((5-(5-(difluoromethyl)-1,3,4-oxadiazole-2-yl)pyridine-2-yl)methyl)-3-(1-ethylpiperidine-3-yl)-6-fluoro-5-(pyridine-4-yl)-1,3-dihydro-2H-benzo[d]imidazole-2-one], the IC50 [1] was over 10000 nM and the IC50 [2] was 13 nM.
`Cc1ccc(-c2cc3c(cc2F)n(Cc2ccc(-c4nnc(C(F)F)o4)cn2)c(=O)n3C)o1` [Compound 177, 1-((5-(5-(difluoromethyl)-1,3,4-oxadiazole-2-yl)pyridine-2-yl)methyl)-6-fluoro-3-methy 1-5-(5-methylfuran-2-yl)-1,3-dihydro-2H-benzo[d]imidazole-2-one] gave an IC50 [1] of over 10000 nM and an IC50 [2] of 71 nM.
In the case of `Cn1c(=O)n(Cc2ccc(-c3nnc(C(F)F)o3)cn2)c2cc(F)c(N3CCN(CC(F)(F)C(F)F)CC3)cc21` [Compound 262, 1-((5-(5-(difluoromethyl)-1,3,4-oxadiazole-2-yl)pyridine-2-yl)methyl)-6-fluoro-3-methy 1-5-(4-(2,2,3,3-tetrafluoropropyl)piperazine-1-yl)-1,3-dihydro-2H-benzo[d]imidazole-2-one], the IC50 [1] is reported as over 10000 nM and the IC50 [2] is reported as 107 nM.
Compound `CN1CCC(n2c(=O)n(Cc3ccc(-c4nnc(C(F)F)o4)cc3F)c3ccccc32)CC1` [Compound 1, 1-(4-(5-(difluoromethyl)-1,3,4-oxadiazole-2-yl)-2-fluorobenzyl)-3-(1-methylpiperidine-4-yl)-1,3-dihydro-2H-benzo[d]imidazole-2-one] has an IC50 [1] of over 10000 nM and an IC50 [2] of 236 nM.
`O=c1n(CCN2CCOCC2)c2ccccc2n1Cc1ccc(-c2nnc(C(F)F)o2)cc1F` [Compound 2, 1-(4-(5-(difluoromethyl)-1,3,4-oxadiazole-2-yl)-2-fluorobenzyl)-3-(2-morpholinoethyl)-1,3-dihydro-2H-benzo[d]imidazole-2-one] showed an IC50 [1] of over 10000 nM and an IC50 [2] of 203 nM.
`CN1CCC(n2c(=O)n(Cc3ccc(-c4nnc(C(F)F)o4)cn3)c3ccc(-c4ccco4)cc32)CC1` [Compound 138, 1-((5-(5-(difluoromethyl)-1,3,4-oxadiazole-2-yl)pyridine-2-yl)methyl)-5-(furan-2-yl)-3-(1-methylpiperidine-4-yl)-1,3-dihydro-2H-benzo[d]imidazole-2-one] gave an IC50 [1] of over 10000 nM and an IC50 [2] of 19 nM.
`Cc1oncc1C(=O)N1CCC(n2c(=O)n(Cc3ccc(-c4nnc(C(F)F)o4)cn3)c3cc(F)ccc32)CC1` [Compound 65, 3-((5-(5-(difluoromethyl)-1,3,4-oxadiazole-2-yl)pyridine-2-yl)methyl)-5-fluoro-1-(1-(5-methylisooxazole-4-carbonyl)piperidine-4-yl)-1,3-dihydro-2H-benzo[d]imidazole-2-one] was tested, and the IC50 [1] was over 10000 nM and the IC50 [2] was 84 nM.
